Results taken from patent US20190111040A1, “IN VIVO AMELIORATION OF ENDOGENOUS ANTI-TUMOR AUTOANTIBODIES TARGETING SURFACE TUMOR ANTIGENS VIA LOW-DOSE P4N” (THE JOHNS HOPKINS UNIVERSITY, priority 2016, published 2019).

Assays:
THP-1 cells [1] = experiment: Effect of inhibitors on Activin A-induced BAFF expression in THP-1 cells; assay type: cell-based; settings: THP-1 cells treated with inhibitor and P4N
Procedure: (§1) FIGS. 5A-5F depict the expression of Activin A/BAFF induced by P4N treatments. (A) P4N induced Activin A or BAFF expression in human PBMCs as determined by RT-PCR. S1-S5 display different individual blood samples collected from 5 different human donors; N, no treatment; P, P4N-treatment (3 μM). The change in Activin A and BAFF expression (mean of 5 patients) relative to the control (NC) is plotted as a histogram (B) The effect of increasing dosages of P4N for 12 h on mRNA and protein levels of Activin A or BAFF in THP-1 cells was analyzed by RT-PCR and ELISA. (C) The effect of 6 μM P4N on mRNA and protein levels of Activin A or BAFF in THP-1 cells was determined at a different time period. (D) The effect of different inhibitors on Activin A-induced BAFF expression was examined. The expression of BAFF mRNA in inhibitor-treated THP-1 cells was determined by RT-PCR, and (E) BAFF protein secretion was measured by ELISA. (F) The effect of THP-1 conditioned media on the proliferation of Raji cells and OKT3 hybridoma cells were determined. Media were harvested, in which THP-1 cells were pre-treated without inhibitor (2) or with SB431542 (3), A83-01 (4), SIS3 (5), SB203580 (6) or PD98059 (7) and then treated with P4N for 12 h. The results are expressed as % viable cells relative to the control (NC, media from untreated THP-1 cells). All values are the means of triplicate samples±SEM. The significant differences in the results of inhibitor and P4N-treated groups compared with the untreated group are indicated by ***P<0.001.
Reverse transcription PCR. Human PBMCs or THP-1 cells were treated with P4N, and then the mRNA expression of INHBA and BAFF in these cells was measured by reverse transcription PCR. Briefly, total cellular RNA was extracted with Trizol reagent (Invitrogen) and reverse-transcribed into cDNA using the Superscript RT-kit (Invitrogen). The cDNA of INHBA and BAFF were then amplified by PCR. GAPDH cDNA in the samples was used to normalize the loading amounts in each reaction. Finally, PCR products were resolved by electrophoresis on 2% agarose gels and visualized with ethidium bromide.

THP-1 cells [2] = experiment: TNF-α, IL-8 and Activin A ELISA in THP-1 cells with bestatin and P4N; assay type: cell-based; settings: 10 μM bestatin 2 h, then 3 μM P4N
Procedure: FIGS. 6A-6E show P4N directly regulated LTA4H to induce monocyte inflammation. (A) P4N (orange) was docked with LTA4H by iGEMDOCK software (gemdock.life.nctu.edu.tw/dock/igemdock.php). RB3041 (Pink) is a small molecule inhibitor that identifies the active site of LTA4H. The amino acids that potentially interact with P4N are noted. The effects of P4N and bestatin on monocytes and their expression of (B) LTB4, (C) TNF-α, (D) IL-8, or (E) Activin A were determined and shown for different times. All values were expressed as the mean±SEM. **P<0.05, group P4N vs group (P4N+bestatin).
ELISA assays. THP-1 cells (1×10^6 cells/ml/well) in a 24-well culture plate were pretreated with 10 μM bestatin (a LTA4H inhibitor, Sigma-Aldrich) for 2 h and then treated with 3 μM P4N for various time intervals. The levels of LTB4 in the culture media were determined by the LTB4 (Enzo Life Sciences, Farmingdale, N.Y.) (R&D) ELISA Kits. The amount of TNF-α, IL-8 and Activin A in cultured media were measured in a similar manner.

Raji or OKT3 cells = experiment: Cell proliferation assay with THP-1-conditioned media; assay type: cell-based; settings: conditioned medium from THP-1 cells treated with P4N and the inhibitor
Procedure: as §1
Cell proliferation assay. Raji or OKT3 cells (1×10^4/well) were seeded and treated with THP-1-conditioned media. After 48 h the number of viable cells was determined by MTT assay. The indices of cell proliferation were calculated as previously described.

LTB4 production = settings: reference (32); cited from earlier work

SMILES	BAFF transcription and protein expression (THP-1 cells [1])	proliferative activity of conditioned medium on Raji or OKT3 cells (Raji or OKT3 cells)	also measured
C[S+]([O-])c1ccc(-c2nc(-c3ccncc3)c(-c3ccc(F)cc3)[nH]2)cc1 (centres unmarked) [SB203580]	had fewer effects	–	–
CC(C)C[C@H](NC(=O)[C@@H](O)[C@H](N)Cc1ccccc1)C(=O)O [Bestatin]	–	–	P4N-induced expression of Activin A (THP-1 cells [2]): inhibited; expression of TNF-α and IL-8 (THP-1 cells [2]): not suppressed
Cc1cccc(-c2nn(C(=S)Nc3ccccc3)cc2-c2ccnc3ccccc23)n1 [A83-01]	significantly reduced	lost its activity	–
COc1cc2c(cc1OC)CN(C(=O)/C=C/c1c(-c3ccccc3)n(C)c3ncccc13)CC2 [SIS3]	significantly reduced	lost its activity	–
COc1cccc(-c2cc(=O)c3ccccc3o2)c1N [PD98059]	had fewer effects	–	–
CC(Cc1ccc(O)c(O)c1)C(C)Cc1ccc(O)c(O)c1 (centres unmarked) [NDGA, Nordihydroguaiaretic acid]	–	–	LTB4 production (LTB4 production): inhibits LTB4 production
NC(=O)c1ccc(-c2nc(-c3ccc4c(c3)OCO4)c(-c3ccccn3)[nH]2)cc1 [SB431542]	significantly reduced	lost its activity	–
